From paper PMC11678373 (Pharmaceutics, 2024)
“And” between values parts separate entries of the source, which are not always exact repeats. Identical values can stand only once. Like-named read-outs stand apart in the source and are kept apart here.

Key:
[1] = system: CYP2C8; details: cited from earlier work
[2] = system: CYP2D6; details: cited from earlier work
[3] = Pharmacokinetics of REG, M-2 and M-5 in rats after single oral REG with or without OLA; assay type: in vivo, male Wistar rats
Description: (§1) Healthy, 14-week-old adult male Wistar rats purchased from the Anima Sp. z o. o. SK and ViVARI s.c. (Warszawa, Poland) were used in the study. The animals were housed for one week in a temperature- and humidity-controlled room with a 12-h light/dark cycle and fed a standard diet with free access to fresh water.
(§2) This reduced the number of animals included in the experiment, which is consistent with the 3R concept. The same drugs (same manufacturer, same dose) were administered in the study group IREG+OLA, but from different batches than in the control groups. No other experimental conditions were changed.
(§3) The samples were centrifuged (2880 g, 10 min at 4 °C), and the plasma was stored at −80 °C until analyzed.
A Cortecs UPLC C18 column (2.1 × 50 mm, 1.6 μm) was used in combination with a VanGuard Acquity UPLC BEH C18 pre-column (2.1 × 5 mm, 3/Pk, Waters Corporation). The injection volume was 5 μL, the autosampler temperature was 4 °C, and the column temperature was 40 °C. The composition of mobile phase A was 0.1% aqueous formic acid solution (v/v), and phase B was acetonitrile/methanol and 0.1% aqueous formic acid solution in a ratio of 1:3 (v/v). The total run time was 5 min. The gradient was as follows: 0–0.5 min with 10% B; 0.5–3 min, 95% B; 3–4 min, 95% B; 4–4.1 min, 10% B; 4.1–5 min, 10% B. The flow rate was 0.4 mL/min. Multiple reaction monitoring (MRM) experiments using positive electrospray ionization (ESI) were performed to analyze the samples.
The following settings of the Xevo TQ-S micro mass spectrometer were used: source temperature 150 °C, desolvation temperature 600 °C, nitrogen gas flow 900 L/h, capillary voltage 3.6 kV.
(§4) The values of the pharmacokinetic parameters of OLA, REG, and M-2 and M-5 were determined by non-compartmental analysis with linear interpolation. PKanalix 2023R1 software (Lixoft, Antony, France) was used to calculate the elimination rate constant (kel), the absorption rate constant (ka), the half-life in the elimination phase (t1/2), the area under the concentration–time curve from zero to the last measurable concentration (AUC0–t), the area under the plasma concentration–time curve from zero to infinity (AUC0–∞), the apparent plasma drug clearance (Cl/F), and the apparent volume of distribution (Vd/F). The maximum plasma concentration (Cmax) and the time to reach the Cmax (tmax) were obtained directly from the measured values. All these parameters were presented as arithmetic mean ± standard deviation (SD) and subjected to statistical analysis.

[4] = system: CYP3A4; details: cited from earlier work
[5] = Long-term stability in plasma (bioanalytical validation); assay type: physicochemical, rat; details: plasma QC samples, −20 °C storage
Description: The concentrations were diluted in five replicates.
Short-term and long-term stability were tested at −20 °C storage conditions and ambient temperature at processing conditions. For the short term, three cycles of freezing and thawing within three days were applied.
All met ICH acceptance criteria.

[6] = single oral REG 20 mg/kg b.w. alone (IIREG control, n = 8), mean ± SD, adapted from previous project ref 39, cited from earlier work; for AUC0–t / AUC0–∞: metabolite in plasma
[7] = system: CYP2C9; details: cited from earlier work
[8] = system: P-gp; set-up: method as in earlier work; details: cited from earlier work
[9] = system: BCRP; set-up: method as in earlier work; details: cited from earlier work
[10] = OLA; single oral OLA 100 mg/kg b.w. alone (IIIOLA control, n = 8); mean ± SD; adapted from previous project ref 40; cited from earlier work
[11] = cited from earlier work
[12] = Pharmacokinetics of OLA in rats after single oral OLA with or without REG; assay type: in vivo, male Wistar rats
Description: as §1, §2, §3
OLA in animal plasma samples was quantified using an Acquity 1-class PLUS ultra-high performance liquid chromatograph coupled to a Xevo TQ-S micro triple quadrupole mass spectrometer (Waters Corporation, 34 Maple Street, Milford, MA, USA). A Cortecs UPLC C18 column (2.1 × 50 mm, 1.6 µm, Waters Corporation, 34 Maple Street, Milford, MA, USA) was used for the chromatographic separation. The column temperature and injection volume were set at 40 °C and 1 µL, respectively. The mobile phase consisted of acetonitrile (eluent A) and 2 mM ammonium acetate in water (eluent B) with 0.1% 98–100% formic acid. The flow rate was kept at 0.3 mL/min. The elution gradient was as follows: 0–3 min, 5% A; 4–5 min, 95% A; 3–5 min, linear from 5% to 95% A; 5–6 min, linear from 95% to 5% A. The mass spectrometer was operated in multiple reaction monitoring mode. Two transitions were monitored for OLA and OLA-d4 as an internal standard (IS): m/z 435.1→367.1 and 435.1→281.0 (qualifier transition) for OLA and m/z 439.1→367.1 and 439.1→281.0 for IS.
as §4

[13] = system: P-gp vesicles; set-up: method as in Deng et al. 36; details: ref Deng et al. 36; cited from earlier work
[14] = system: CYP3A4/5; set-up: method as in PMID 28657402, PMID 27684210; details: cited from earlier work
[15] = system: CYP2C19; details: cited from earlier work
[16] = set-up: method as in Jin et al. 37; details: ref Jin et al. 37, cited from earlier work; for predicted AUC increase for (S)- and/or (R)-warfarin: via CYP inhibition
[17] = system: CYP3A; set-up: method as in Jin et al. 37; details: competitive inhibition; ref Jin et al. 37; cited from earlier work
[18] = system: CYP2B6; details: cited from earlier work
[19] = system: P-glycoprotein; details: cited from earlier work
[20] = cited from earlier work; remark: listed apart in the source
[21] = co-administration of OLA and metformin in rats; cited from earlier work

CNC(=O)c1cc(Oc2ccc(NC(=O)Nc3ccc(Cl)c(C(F)(F)F)c3)c(F)c2)cc[n+]1[O-] [M-2, REG-N-oxide]
R1 value [1]: > 1.1 | R1 value [2]: > 1.1 | AUC0–t of metabolite, times higher during combined administration of OLA and REG ([3]; IREG+OLA vs. IIREG control): 8.86 fold | Cmax of metabolite, times higher during combined administration of OLA and REG ([3]; IREG+OLA vs. IIREG control): 7.22 fold | R1 value [4]: > 1.1 | stable in plasma (long-term test) [5]: ≥ 180 days | AUC0–t [6]: 9615.36 ± 2275.41 (23.7) ng × h/mL | AUC0–∞ [6]: 11,469.93 ± 2133.05 (18.6) ng × h/mL | R1 value [7]: > 1.1

NC(=O)c1cc(Oc2ccc(NC(=O)Nc3ccc(Cl)c(C(F)(F)F)c3)c(F)c2)cc[n+]1[O-] [M-5, N-desmethyl-REG-N-oxide]
R1 value [1]: > 1.1 | AUC0–t of metabolite, times higher during combined administration of OLA and REG ([3]; IREG+OLA vs. IIREG control): 17.83 fold | AUC0–∞ of metabolite, times higher during combined administration of OLA and REG ([3]; IREG+OLA vs. IIREG control): 18.82 fold | Cmax of metabolite, times higher during combined administration of OLA and REG ([3]; IREG+OLA vs. IIREG control): 16.32 fold | stable in plasma (long-term test) [5]: ≥ 180 days | AUC0–t [6]: 803.19 ± 177.02 (22.0) ng × h/mL | AUC0–∞ [6]: 847.88 ± 178.97 (21.1) ng × h/mL

O=C(c1cc(Cc2n[nH]c(=O)c3ccccc23)ccc1F)N1CCN(C(=O)C2CC2)CC1 [OLA, Olaparib]
IC50 [8]: > 10 µM | inhibitor class as perpetrator towards REG, from AUC ratio ([3]; rat model, AUC ratio 3.39): moderate inhibitor | stable in plasma (long-term test) [5]: at least 181 days | IC50 [9]: > 10 µM | AUC0–t [10]: 28.28 ± 28.16 (99.6) µg × h/mL | AUC0–∞ [10]: 28.58 ± 28.31 (99.1) µg × h/mL | Cl/F [10]: 7.84 ± 15.21 (193.9) L/h | Cmax [10]: 8.72 ± 6.80 (78.0) µg/mL | t0.5 [10]: 4.79 ± 6.06 (126.5) h | tmax [10]: 1.16 ± 0.92 (78.9) h | concentration in the gastrointestinal tract ([11]; from a 400 mg dose): 3683 µM | increase of AUC0–t of OLA after administration of OLA with REG ([12]; IREG+OLA vs. IIIOLA control): 3.4 fold | increase of AUC0–t of OLA by REG ([12]; IREG+OLA vs. IIIOLA control): 241.7% | increase of AUC0–∞ of OLA after administration of OLA with REG ([12]; IREG+OLA vs. IIIOLA control): 3.4 fold | increase of AUC0–∞ of OLA by REG ([12]; IREG+OLA vs. IIIOLA control): 240.6% | increase of Cmax of OLA after administration of OLA with REG ([12]; IREG+OLA vs. IIIOLA control): 2.0 fold | increase of Cmax of OLA by REG ([12]; IREG+OLA vs. IIIOLA control): 104.9% | t0.5 ([12]; OLA, single oral OLA 100 mg/kg b.w. + REG 20 mg/kg b.w. (IREG+OLA, n = 8), mean ± SD): 3.01 ± 0.86 (28.6) h | AUC0–∞ ratio of OLA (study group/control group) ([12]; rats, OLA victim, REG perpetrator): 3.39 and 3.41 | inhibition of atorvastatin transport [13]: weak inhibitor | time-dependent CYP inhibition ([14]; OLA 10 μM): little effect | time-dependent CYP inhibition ([14]; OLA 2–200 μM): time-dependent CYP3A4/5 inhibitor | IC50 ([14]; reversible inhibition, OLA 17–500 μM): 119 µM

CNC(=O)c1cc(Oc2ccc(NC(=O)Nc3ccc(Cl)c(C(F)(F)F)c3)c(F)c2)ccn1 [REG, regorafenib]
R1 value [1]: > 1.1 | R1 value [15]: > 1.1 | increase of AUC0–∞ of REG after OLA administration ([3]; IREG+OLA vs. IIREG control): 3.38 fold | increase of t0.5 of REG after OLA administration ([3]; IREG+OLA vs. IIREG control): 1.82 fold | increase of tmax of REG after OLA administration ([3]; IREG+OLA vs. IIREG control): 2.66 fold | reduction of kel of REG in the study group ([3]; IREG+OLA vs. IIREG control): 1.77 fold | t0.5 ([3]; REG, single oral REG 20 mg/kg b.w. + OLA 100 mg/kg b.w. (IREG+OLA, n = 8), mean ± SD): 11.65 ± 3.70 (31.7) h | R1 value [4]: > 1.1 | stable in plasma (long-term test) [5]: ≥ 180 days | predicted effect on the AUCs of apixaban and rivaroxaban [16]: little or no effect | Ki [17]: 20.7 µM | estimated duodenal concentration ([11]; 160 mg REG dose, assumed duodenal volume of 250 mL): 1.3 mM | R1 value [18]: > 1.1 | Vd/F ([6]; REG): 2062.53 ± 615.85 (29.7) mL | tmax ([6]; REG): 5.8 ± 2.1 (36.9) h | R1 value [7]: > 1.1 | IC50 ([19]; in vitro, read-out: IC50): ~2 µM | IC50 ([19]; read-out: IC50 for P-gp inhibition): 2.2 µM

CNC(=O)c1ccccc1Sc1ccc2c(/C=C/c3ccccn3)n[nH]c2c1 [axitinib]
predicted AUC increase for (S)- and/or (R)-warfarin [16]: ≤ 1.2 fold

OC(Cn1cncn1)(Cn1cncn1)c1ccc(F)cc1F [fluconazole]
increase in AUC of OLA ([20]; concomitant fluconazole): 121% | increase in Cmax of OLA ([20]; concomitant fluconazole): 14%

CCC(C)n1ncn(-c2ccc(N3CCN(c4ccc(OCC5COC(Cn6cncn6)(c6ccc(Cl)cc6Cl)O5)cc4)CC3)cc2)c1=O (stereo not drawn) [itraconazole]
increase in AUC of OLA ([20]; concomitant itraconazole): 170% | increase in Cmax of OLA ([20]; concomitant itraconazole): 42%

Cc1ccc(NC(=O)c2ccc(CN3CCN(C)CC3)cc2)cc1Nc1nc(-c2cccnc2)cs1 [masitinib]
Ki [17]: 1.3 µM

CN(C)C(=N)N=C(N)N [metformin]
increase in metformin AUC [21]: 2.6 fold | increase in metformin Cmax [21]: 2.8 fold

COC(=O)c1ccc2c(c1)NC(=O)/C2=C(\Nc1ccc(N(C)C(=O)CN2CCN(C)CC2)cc1)c1ccccc1 [nintedanib]
predicted AUC increase for (S)- and/or (R)-warfarin [16]: ≤ 1.2 fold

Cc1cc(Nc2cc(N3CCN(C)CC3)nc(Sc3ccc(NC(=O)C4CC4)cc3)n2)[nH]n1 [tozasertib]
predicted AUC increase for (S)- and/or (R)-warfarin [16]: ≤ 1.2 fold

CC(=O)Nc1cccc(-n2c(=O)n(C3CC3)c(=O)c3c(Nc4ccc(I)cc4F)n(C)c(=O)c(C)c32)c1 [trametinib]
predicted AUC increase for (S)- and/or (R)-warfarin [16]: ≤ 1.2 fold

Clc1ccc(Nc2nnc(Cc3ccncc3)c3ccccc23)cc1 [vatalanib]
Ki [17]: 0.2 µM
